From patent publication US12371658B2, “Three-dimensional microtissues with integrated mechanical loading” (Carnegie Mellon University, priority 2017, dated 2025)

Tested on: cardiac MIFIs (HUES9-CMs with 10% FBs)
Assay: side-on contractility assay of cardiac MIFIs with drug dosing (twitch force, beat frequency)
Type: cell-based, human
Conditions: for beat frequency relative to initial beat frequency: normalized to native beat frequency
Protocol: MIFIs were removed from wells using forceps and were transferred to a 35 mm petri dish filled with 37° C. Tyrode's solution (1.192 g HEPES, 0.203 g MgCl2, 0.403 g KCl, 7.889 g NaCl, 0.04 g NaH2PO4, 0.901 g C6H12O6, and 0.265 g CaCl2) per liter of distilled water, pH 7.4). MIFIs were anchored by placing the wide base of the strip into a slit in a PDMS block glued to the bottom of the stimulation dish. The Tyrode's bath was maintained between 30° and 37° C. using a heated stage regulated by an in house Lab VIEW program. Videos of samples were taken using a NikonTM […] DSLR camera mounted on a NikonTM SMZ1500 stereomicroscope. Samples were paced from 2-10 Hz using parallel platinum electrodes placed 2 cm apart and immersed in Tyrode's solution. Samples were stimulated with 40V using a 10 ms square pulse wave. Shorter pulse durations can also be used (e.g., 2 ms, 4 ms, 6 ms, etc.). Carbachol and isoprenaline were mixed to stock concentrations of 5 mM in 1× Tyrode's solution. […] Caffeine was dissolved directly in Tyrode's to make a stock solution of 20 mM. […] Finite element modeling of bending PDMS strips was used to create lookup tables for strips ranging in thickness from 125 to 154 μm. FIGS. 9A-D show modeling data 930 for strips 900, 910, and 920. The elastic strip (e.g., strip 112) was modeled as 3D deformable extruded solid, with extruded thickness varying between 125 and 154 μm. The elastic strip was considered as linearly elastic, isotropic and incompressible material, with Young's modulus equal to 3.09 MPa according to elastic modulus measurements. The section of the elastic strip was considered as solid homogeneous. The force-driven bending simulation was designed to mimic the experimental procedure. One static general analysis step was used where the elastic strip was deformed by application of equal contractile force in three parallel axial connectors placed in the regions where the tissue was attached during the experiment, so that the total force would equal the sum of the contractile force of the three connectors. […] Additional boundary conditions were imposed based on geometrical symmetry. […] Finally, the finite element mesh was composed of 20-node quadratic, hybrid, reduced integration brick elements. From this model, the change in tissue length could then be used to calculate the force necessary to bend the strips to these conformations. Length changes of contracting MIFIs were tracked and resulting length data was used to calculate the corresponding force based on tissue length and strip parameters (e.g., thickness, width, length, elastic modulus, and shape). […] By tracking the change in tissue length of beating MIFIs, we calculated force generated by these tissues using force lookup tables. MIFIs were removed from wells, one side of the strip was placed in a slit in a PDMS block to anchor the MIFI for side-on viewing, and the construct was submerged in Tyrode's and placed between two parallel platinum electrodes for later stimulation by assay device 1300.

[1] = Day 14, 10% FB MIFI, carbachol dosing, concentration not given
[2] = Day 14, 10% FB MIFI, isoprenaline at 500 nM and 5 μM

CNC[C@H](O)c1ccc(O)c(O)c1 [epinephrine]
twitch force as percent of initial twitch force (5 μM epinephrine, electrical pacing 2 Hz): 85%
twitch force as percent of initial twitch force (5 μM epinephrine, spontaneous beating): 66%
twitch force as percent of initial twitch force (50 μM epinephrine, electrical pacing 2 Hz): 80%
twitch force as percent of initial twitch force (50 μM epinephrine, spontaneous beating): 61%
twitch force (Day 14, 10% FB MIFI, 500 nM epinephrine, spontaneous beating): 5.49 μN
effect on twitch force (Day 14, 10% FB MIFI, epinephrine 500 nM to 50 μM): dose-dependent decrease in twitch force
beat frequency relative to initial BPM (epinephrine, first of two values, dose not given): 1.42 ×

C[N+](C)(C)CCOC(N)=O [carbachol]
effect on spontaneous beat frequency [1]: reduced the spontaneous beat frequency
effect on twitch force [1]: surprisingly little impact on twitch force
twitch force relative to twitch force of synchronous constructs (Day 14 arrhythmic construct, carbachol 500 nM, 5 μM, 50 µM, spontaneous beating): ~30%
effect on spontaneous beat frequency of arrhythmic construct (Day 14 arrhythmic construct, increasing carbachol doses 500 nM, 5 μM, 50 µM): improvement in the spontaneous beat frequency
fold stronger twitch contraction (arrhythmic construct, 2 Hz pacing coupled with 5 μM carbachol): 2.5 ×
fold stronger twitch contraction (arrhythmic construct, 2 Hz pacing coupled with 50 μM carbachol): 2.8 ×
combinatorial effect of drug treatment with electric pacing on twitch force (arrhythmic construct, carbachol 5 μM and 50 μM, 2 Hz pacing): significantly higher twitch forces

CC(C)NCC(O)c1ccc(O)c(O)c1 (centres unmarked) [isoprenaline]
beat frequency relative to initial beat frequency (500 nM isoprenaline): 1.27 ×
beat frequency relative to initial beat frequency (50 μM isoprenaline): 1.48 ×
twitch force as percent of initial twitch force (Day 14, 10% FB MIFI, 500 nM isoprenaline): ~80%
twitch force (Day 14, 10% FB MIFI, 500 nM isoprenaline, 2 Hz paced): 2.81 μN
twitch force (Day 14, 10% FB MIFI, 500 nM isoprenaline, spontaneous beating): 2.85 μN
twitch force (Day 14, 10% FB MIFI, beating spontaneously in 5 M isoprenaline): ~4.0 μN
twitch force as percent of initial twitch strength (Day 14, 10% FB MIFI, isoprenaline): ~50%
effect on native beat frequency [2]: intended stimulatory effect
effect on twitch force [2]: did not noticeably affect the twitch force
ability to electrically pace the constructs (Day 14, 10% FB MIFI, isoprenaline at 500 nM and 5 μM, 2 Hz pacing): did not interrupt the ability to electrically pace the constructs
twitch force (Day 14, 10% FB MIFI, isoprenaline, 2 Hz paced): 2.15 μN
twitch force (Day 14, 10% FB MIFI, isoprenaline, spontaneous beating): 1.78 μN

Cn1c(=O)c2c(ncn2C)n(C)c1=O [caffeine]
beat frequency relative to initial BPM (5 mM caffeine): 1.59 ×
effect on twitch force (Day 14, 10% FB MIFI, 55 mM caffeine): minimal impact on the twitch force
effect on spontaneous beat frequency (Day 14, 10% FB MIFI, 55 mM caffeine, after isoprenaline wash-out): increased the spontaneous beat frequency
